Data reported in patent US20230391825A1, “ENHANCED SKIN PERMEATION OF A NOVEL PEPTIDE VIA STRUCTURAL MODIFICATION, CHEMICAL ENHANCEMENT, AND MICRONEEDLES” (ESCAPE THERAPEUTICS, INC., priority 2020, published 2023).
Peptide text beside a SMILES is read from it.

Key:
[1] = format: in vitro ADME
Source text: Human dermatomed skin was obtained from Science Care (Arizona, USA). The skin tissues were excised from the thighs of two male cadavers with age at death of 66 and 57. The skin samples used in the study were without identifier and exempted from ethical review. The Integrity of cadaver skin was checked using visual inspection before use to ensure no pores or breaks in the skin surface were present. In addition, any compromise in skin integrity was identified through observation of a rapid and large increase in the amount of permeated peptide through the skin at the first sampling time point.
Franz type diffusion cells were used. Human epidermis was mounted between donor and receptor compartments and excessive skin at the sides was trimmed off to minimize lateral diffusion. SC was faced towards the donor compartment and the skin area for permeation was 1.327 square centimeters. The receptor compartment was filled with 5.5 milliliters of 1 millimolar PBS solution containing 1 percent (volume/volume) antibacterial antimycotic solution. Receptor solution was filtered twice to prevent formation of air bubbles beneath the epidermis. […] Permeation was measured over 24 hours.
The amount of peptide permeated was determined using Shimadzu CBM-20A HPLC system with Agilent ODS C18 column (4.6 millimeters x 250 millimeters x 5 microns, 170 Angstroms). […]

mushroom tyrosinase = settings: cited from earlier work
human tyrosinase = molecular target: T1, human tyrosinase (Homo sapiens, UniProt P14679); settings: cited from earlier work
T1 sequence (P14679 19-529): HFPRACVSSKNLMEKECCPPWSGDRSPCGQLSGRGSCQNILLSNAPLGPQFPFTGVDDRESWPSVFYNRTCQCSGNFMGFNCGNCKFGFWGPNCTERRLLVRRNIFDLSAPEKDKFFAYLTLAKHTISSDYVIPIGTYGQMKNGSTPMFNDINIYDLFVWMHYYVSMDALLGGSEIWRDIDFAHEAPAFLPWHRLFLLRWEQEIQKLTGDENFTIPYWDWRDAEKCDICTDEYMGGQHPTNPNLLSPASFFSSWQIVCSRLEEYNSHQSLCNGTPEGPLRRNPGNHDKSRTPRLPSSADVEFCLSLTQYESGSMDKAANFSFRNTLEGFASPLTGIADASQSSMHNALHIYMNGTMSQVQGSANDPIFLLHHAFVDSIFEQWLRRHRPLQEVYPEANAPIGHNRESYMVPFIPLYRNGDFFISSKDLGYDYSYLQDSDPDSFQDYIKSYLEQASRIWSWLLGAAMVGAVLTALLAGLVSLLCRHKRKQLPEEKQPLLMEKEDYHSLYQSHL

melasma = settings: cited from earlier work

## N=C(N)NCCC[C@H](NC(=O)[C@H](CO)NC(=O)[C@H](CCCNC(=N)N)NC(=O)[C@@H](N)Cc1ccc(O)cc1)C(=O)N[C@@H](CCCCN)C(=O)N[C@@H](Cc1ccc(O)cc1)C(=O)N[C@@H](CO)C(=O)N[C@@H](CO)C(=O)N[C@@H](Cc1c[nH]c2ccccc12)C(=O)N[C@@H](Cc1ccc(O)cc1)C(=O)O [Native peptide, decapeptide-12] (H-YRSRKYSSWY-OH)
[1]
  Effect of enhancers on skin permeation: didn't alter skin permeation
Mushroom tyrosinase
  Competitive inhibition effect compared with hydroquinone: stronger competitive inhibition effect
Human tyrosinase
  Competitive inhibition effect compared with hydroquinone: stronger competitive inhibition effect
melasma; 16 weeks of twice daily treatment
  Efficacy in reducing content of melanin: more than 50%
melasma; in vivo
  Safety compared with hydroquinone: safer than hydroquinone
melasma; studies on humans, topical
  Effect in treatment of melasma: good efficacy
